Test results reported in patent US7182943B2, “Method and system for modulation of microbial cell characteristics” (Université Laval, priority 2002, dated 2007).
Read-outs that look alike come from different tables or passages of the source. No end group written: not given here.

Assays:
B. longum [1] = assay: Antibiotic sensitivity by the disc assay method, B. longum cells; type: cell-based, Bifidobacterium longum ATCC 15707; conditions: after approximately 6 days of continuous culture, tolerance increased with time
Method: (§1) FIG. 1 : Tolerance to kanamycin of L. diacetylactis and B. longum cells produced during continuous immobilized cell fermentation in reactors R1 and R2 for different culture times. J and R indicate the culture day and reactor, respectively. The antibiotic sensitivity was tested by the disc assay method.
(§2) Bifidobacterium longum ATCC 15707 and Lactococcus lactis ssp lactis biovar diacetylactis were immobilized separately in κ-carrageenan/locust bean gum gel beads with a 2% (v/v) inoculum, as described previously (Lamboley et al. 1997). Beads with diameters in the range 1–2 mm were selected by wet sieving and used for fermentation experiments. This mixed gel is a good matrix entrapment for temperature-sensitive cells, with good mechanical properties for long-term stability during continuous culture with immobilized cells (Lamboley et al., 1997; 1999; 2001). The κ-carrageenan/locust bean gum gel is stabilized by potassium and other cations present in the culture broth. […] Other gel compositions can also be used for the immobilization matrix, such as polysaccharides and proteins, with other chemical products.
(§3) Reactor R1 was inoculated with 15% (v/v) of each of the two types of gel beads containing a pure culture of the two strains which have been pre-colonized during a 16 h pH-controlled batch culture. […] The reactors in series were continuously fed with MRS medium (de Man et al., 1960) supplemented with KCl 0.15 M to ensure bead mechanical stability. Medium feed flow rate was set at 240 ml/h during the 17-day culture and pH was controlled at 6.0 by addition of NH4OH 6N. The bioreactor was held at temperatures varying between 32–37° C. and purged with CO2 to maintain anaerobic conditions, with mixing set at 120 rpm.
(§4) FIG. 1 and Table 1 illustrate the effect of different antibiotics on the increase of L. diacetylactis and B. longum tolerance as a function of culture time.

L. diacetylactis = assay: Antibiotic tolerance by the disc assay method, L. diacetylactis cells; type: cell-based, Lactococcus lactis ssp lactis biovar diacetylactis; conditions: after approximately 6 days of continuous culture, tolerance increased with time
Method: as §1, §2, §3, §4

B. longum [2] = conditions: 30000 ppm H2O2, 1 min at 37° C.
Method: FIG. 4: B. longum survival to hydrogen peroxyde (H2O2) of control (free-cell batch culture) and experimental (continuous two-stage immobilized cells fermentation) cultures. […] A bacterial sample (1 ml) was incubated with 9 ml H2O2 solution at final concentrations of 0, 2000, 10000, 20000, or 30000 ppm H2O2, for 1 min at 37° C. After incubation, 0.1 ml of test sample was added to 9.9 ml catalase 2% to stop the reaction, and cell survival was determined by the pour plate method.
The resistance of cells in the effluents from R1 and R2 to different stresses was tested as a function of fermentation time and compared to a control treatment. Control cells were produced during free-cell batch fermentation in MRS medium inoculated at 2% and incubated for 18 h at 37° C. with no pH control.

Compound	Tolerance of cells produced with immobilized cell technology compared to the control (B. longum [1])	Tolerance of cells produced with immobilized cell technology compared to the control (L. diacetylactis)	Cell survival (B. longum [2]; B. longum cells produced with ICT)	Cell survival (B. longum [2]; B. longum control cells (free-cell batch culture))
O=C(N[C@H](CO)[C@H](O)c1ccc([N+](=O)[O-])cc1)C(Cl)Cl [Chloramphenicol]	increased tolerance	more tolerant		
CC[C@H]1OC(=O)[C@H](C)[C@@H](O[C@H]2C[C@@](C)(OC)[C@@H](O)[C@H](C)O2)[C@H](C)[C@@H](O[C@@H]2O[C@H](C)C[C@H](N(C)C)[C@H]2O)[C@](C)(O)C[C@@H](C)C(=O)[C@H](C)[C@@H](O)[C@]1(C)O [Erythromycin]	increased tolerance			
OO [H2O2, hydrogen peroxide]			0.1%	0.003%
CN[C@H](CC(C)C)C(=O)N[C@H]1C(=O)N[C@@H](CC(N)=O)C(=O)N[C@H]2C(=O)N[C@H]3C(=O)N[C@H](C(=O)N[C@H](C(=O)O)c4cc(O)cc(O)c4-c4cc3ccc4O)[C@H](O)c3ccc(c(Cl)c3)Oc3cc2cc(c3O[C@@H]2O[C@H](CO)[C@@H](O)[C@H](O)[C@H]2O[C@H]2C[C@](C)(N)[C@H](O)[C@H](C)O2)Oc2ccc(cc2Cl)[C@H]1O [Vancomycin]	increased tolerance	more tolerant		
CN(C)[C@@H]1C(=O)C(C(N)=O)=C(O)[C@@]2(O)C(=O)C3=C(O)c4c(O)cccc4[C@@](C)(O)[C@H]3C[C@@H]12 [tetracyclin]	increased tolerance	more tolerant		
Nisin Z (ITSISLCTPGCKTGALMGCNMKTATCNCSIHVSK; also: lantibiotic nisin-Z: thioether rings and dehydro residues not placed; UniProt P29559 24-57, looked up) [bacteriocin tested among the antibiotics in the disc assay]	increased tolerance	more tolerant		
